Results from patent publication US9061030B2, “sGC stimulators” (IRONWOOD PHARMACEUTICALS, INC., priority 2010, dated 2015).

Assays:
[1] = target: T1, soluble guanylate cyclase (sGC) (Homo sapiens, UniProt Q02108+Q02153); assay: sGC-HEK-cGMP assay; format: cell-based; conditions: HEK293 cells, 10 μM SNP, percentage of sGC activity obtained with positive control BAY 41-2272 (= 100%); for Emax at 10 µM: compound at 10 μM; for Emax at 30 µM: compound at 30 μM
T1 construct: endogenously expressing soluble guanylate cyclase (sGC); endogenous in cells; host or cells: HEK293
T1 sequence (Q02153 1-619): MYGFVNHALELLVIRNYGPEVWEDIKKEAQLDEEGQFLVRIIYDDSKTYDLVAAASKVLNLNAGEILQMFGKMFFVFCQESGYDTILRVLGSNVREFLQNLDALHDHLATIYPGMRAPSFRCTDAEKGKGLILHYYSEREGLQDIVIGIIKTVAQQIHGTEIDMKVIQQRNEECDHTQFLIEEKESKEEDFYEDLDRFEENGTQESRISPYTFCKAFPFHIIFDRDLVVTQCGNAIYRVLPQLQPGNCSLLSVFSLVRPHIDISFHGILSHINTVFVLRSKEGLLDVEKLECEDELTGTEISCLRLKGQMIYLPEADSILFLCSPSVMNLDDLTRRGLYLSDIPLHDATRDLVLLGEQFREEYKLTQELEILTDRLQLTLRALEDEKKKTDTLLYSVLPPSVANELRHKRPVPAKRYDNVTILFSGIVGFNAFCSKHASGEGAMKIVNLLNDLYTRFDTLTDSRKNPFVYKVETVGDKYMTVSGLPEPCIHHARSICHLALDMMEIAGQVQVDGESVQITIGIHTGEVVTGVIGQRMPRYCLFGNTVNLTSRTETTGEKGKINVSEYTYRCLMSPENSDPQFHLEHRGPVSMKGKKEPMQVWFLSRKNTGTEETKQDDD
T1 sequence (Q02108 1-690): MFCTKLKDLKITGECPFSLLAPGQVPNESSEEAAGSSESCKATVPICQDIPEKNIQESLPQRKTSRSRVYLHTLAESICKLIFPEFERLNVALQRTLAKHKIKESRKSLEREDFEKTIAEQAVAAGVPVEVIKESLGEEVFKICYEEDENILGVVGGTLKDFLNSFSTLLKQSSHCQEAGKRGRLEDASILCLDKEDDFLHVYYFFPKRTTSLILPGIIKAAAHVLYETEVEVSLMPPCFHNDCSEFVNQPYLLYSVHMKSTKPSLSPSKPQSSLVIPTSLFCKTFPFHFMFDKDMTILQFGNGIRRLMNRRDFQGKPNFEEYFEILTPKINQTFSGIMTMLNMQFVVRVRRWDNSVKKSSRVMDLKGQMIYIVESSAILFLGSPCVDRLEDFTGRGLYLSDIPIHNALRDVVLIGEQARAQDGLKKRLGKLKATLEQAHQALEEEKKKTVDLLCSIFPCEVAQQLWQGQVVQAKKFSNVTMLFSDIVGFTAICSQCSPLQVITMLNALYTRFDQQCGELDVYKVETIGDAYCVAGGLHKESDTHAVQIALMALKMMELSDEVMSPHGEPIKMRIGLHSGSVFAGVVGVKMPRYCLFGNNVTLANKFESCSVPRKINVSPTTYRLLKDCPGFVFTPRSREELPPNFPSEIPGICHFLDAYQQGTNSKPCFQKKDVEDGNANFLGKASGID
Experimental: Human embryonic kidney cells (HEK293), endogenously expressing soluble guanylate cyclase (sGC), were used to evaluate the activity of the test compounds. Compounds stimulating the sGC receptor should cause an increase in the intracellular concentration of cGMP. HEK 293 cells were seeded in Dulbecco's Modification of Eagle's Medium supplemented with fetal bovine serum (10% final) and L-glutamine (2 mM final) in a 200 μL volume at a density of 1×10^5 cells/well in a poly-D-lysine coated 96 well flat bottom plate and grown overnight at 37° C. Medium was aspirated and cells were washed with 1× Hank's Buffered Saline Salt Solution (200 μL). Cells were then incubated for 15 minutes at 37° C. with 0.5 mM 3-isobutyl-1-methylxanthine (200 μL). Test article was then added to the assay mixture (2 μL) and incubated in the presence of 10 μM Sodium Nitroprusside (SNP) at 37° C. for 10 minutes. After the 10 minute incubation, the assay mixture was aspirated and 0.1M HCl (200 μL) was added to the cells. The plate was incubated at 4° C. for 30 minutes in the 0.1M HCl to stop the reaction and lysed the cells. The plates were then centrifuged at 1,200 g for 5 minutes at room temperature. Supernatants were collected and transferred to a new flat bottom 96 well plate for analysis. Vehicle controls were carried out using DMSO (1%). A known sGC stimulator, BAY 41-2272, was used as the positive control.
Samples were diluted with an equal volume of 1 M Ammonium Acetate (pH 7) to neutralize samples for better chromatography. A 2×cGMP standard curve was prepared in 0.1 M HCl and then diluted with an equal volume of 1 M Ammonium Acetate, with the following final concentrations in nM: 1024, 512, 256, 128, 64, 32, 16, 8, 4, 2, 1.cGMP concentrations were determined from each sample using the LC/MS conditions (Table 2 below) and calculated standard curve. EC50 values were calculated from concentration-response curves generated with GraphPad Prism Software.
The biological activities of some of the compounds according to Formula IA or Formula IB determined with the sGC-HEK assay are summarized in Table 3 below.

[2] = target: T2, Human soluble guanylate cyclase enzyme (hsGC) (Homo sapiens, UniProt Q02108+Q02153); assay: Purified human sGC enzyme activity assay (with or without SNP); format: biochemical; conditions: 30 μM compound; for sGC Enzyme Activity Increase at 30 μM with SNP: 1 μM SNP, specific activity vs DMSO and SNP; for sGC Enzyme Activity Increase at 30 μM without SNP: specific activity vs DMSO control
T2 construct: purchased Enzo Inc. ALX-201-177
T2 sequence (Q02153 1-619): T1 sequence (Q02153 1-619)
T2 sequence (Q02108 1-690): T1 sequence (Q02108 1-690)
Experimental: Human soluble guanylate cyclase enzyme (hsGC) obtained from Enzo Inc. (P/N: ALX-201-177) was used to evaluate the activity of test compounds. The assay reactions contained 0.1 M Tris (pH 8.0), 0.5 mg/mL BSA (pH 8.0), 2 mM DTT, 2 mM MgCl2, 300 μM GTP, 1 mM 3-isobutyl-1-methylxanthine (IBMX) and 5 ng human soluble guanylate cyclase enzyme. Test compounds in DMSO were then added (2 μL, 10 or 30 μM final concentration) and incubated (200 μL, 96-well plate format) at 37° C. for 30 minutes. The controls were carried out using 2 μL DMSO. After the 30 minute incubation, the reaction was stopped with the addition of 200 μL of cold methanol. The plate was then centrifuged at 3,200 rpm for 10 minutes at room temperature. Supernatants (200 μL) were collected and transferred to a new 96 well plate for analysis.
An 8 point cGMP (Sigma-Aldrich P/N: G6129) standard curve was prepared in assay buffer ranging from 0.156-20 μM. Samples for the cGMP standard curve were then diluted with an equal volume of methanol resulting in final cGMP concentrations of 0.078-10 μM.
The cGMP standard curve was generated using GraphPad Prism Software.
Calculations: Specific Activity was determined by the amount of cGMP formed (nmoles) per mg of sGC per min. Enzyme activity “fold-change” was calculated by dividing the Specific Activity for a test compound by the Specific Activity of DMSO control.
The enzymatic activity fold-change of the purified human sGC enzyme determined in the presence of each of the test compounds individually at 10 or 30 μm without the addition of sodium nitroprusside (SNP), a nitric oxide donor, is presented in Table 5.
Enzyme assays were also performed as described above, but in the presence of 1 μM sodium nitroprusside (SNP). Enzymatic activity fold-changes are reported for selected test compounds in the presence of both SNP and the test compound. These were calculated by dividing the specific activity (activity increase) for the test compound dissolved in DMSO and SNP over the specific activity for the mixture of DMSO and SNP.

Row | Structure (SMILES) | Emax at 10 µM [1] | Emax at 30 µM [1] | sGC Enzyme Activity Increase at 30 μM with SNP [2] | sGC Enzyme Activity Increase at 30 μM without SNP [2]
1 | Fc1ccccc1Cn1nc(-c2cscn2)nc1-c1cc(Br)ccn1 [Compound I-52, 4-(5-(4-bromopyridin-2-yl)-1-(2-fluorobenzyl)-1H-1,2,4-triazol-3-yl)thiazole] | 0 to 5% | 0 to 5% | B (B = 1 to <2 fold increase) | B (B = 1 to <2 fold increase)
2 | Fc1ccccc1Cn1nc(-c2ccccn2)nc1-n1ccnc1 [Compound I-49, 2-(1-(2-fluorobenzyl)-5-(1H-imidazol-1-yl)-1H-1,2,4-triazol-3-yl)pyridine] | 0 to 5% | 5 to 10% | B (B = 1 to <2 fold increase) | B (B = 1 to <2 fold increase)
3 | Fc1ccccc1Cn1nc(-c2ncco2)nc1-c1ncccn1 [Compound I-8] | 0 to 5% | 0 to 5% | B (B = 1 to <2 fold increase) | C (C = 2 to <5 fold increase)
4 | Fc1ccccc1Cn1nc(-c2ncccn2)nc1-c1ncco1 [Compound I-9] | 0 to 5% | 5 to 10% | B (B = 1 to <2 fold increase) | C (C = 2 to <5 fold increase)
5 | Nc1cccc(-c2nc(-c3nccs3)n(Cc3ccccc3F)n2)n1 [Compound I-14, 6-(1-(2-fluorobenzyl)-5-(thiazol-2-yl)-1H-1,2,4-triazol-3-yl)pyridin-2-amine] | 5 to 10% | 10 to 20% | C (C = 2 to <5 fold increase) | B (B = 1 to <2 fold increase)
6 | Fc1ccccc1Cn1nc(-c2cc(N3CCOCC3)ccn2)nc1-c1nccs1 [Compound I-65, 4-(2-(1-(2-fluorobenzyl)-5-(thiazol-2-yl)-1H-1,2,4-triazol-3-yl)pyridin-4-yl)morpholine] | 80 to 100% | 80 to 100% | E (E = 10 to <20 fold increase) | D (D = 5 to <10 fold increase)
7 | Fc1ccccc1Cn1nc(-c2nccs2)nc1-c1ncccn1 [Compound I-29] | 0 to 5% | 0 to 5% | C (C = 2 to <5 fold increase) | B (B = 1 to <2 fold increase)
8 | Fc1ccccc1Cn1nc(-c2ncco2)nc1-c1ccccn1 [Compound I-7] | 0 to 5% | 5 to 10% | B (B = 1 to <2 fold increase) | B (B = 1 to <2 fold increase)
9 | Nc1ccnc(-c2nc(-c3nccs3)nn2Cc2ccccc2F)c1 [Compound I-47] | 0 to 5% | 0 to 5% | B (B = 1 to <2 fold increase) | B (B = 1 to <2 fold increase)
10 | Fc1ccccc1Cn1nc(-c2cc(Br)ccn2)nc1-c1nccs1 [Compound I-36, 2-(3-(4-bromopyridin-2-yl)-1-(2-fluorobenzyl)-1H-1,2,4-triazol-5-yl)thiazole] | 0 to 5% | 0 to 5% | B (B = 1 to <2 fold increase) | B (B = 1 to <2 fold increase)
11 | Fc1ccccc1Cn1nc(-c2ncccn2)nc1-c1ccccn1 [Compound I-32] | 0 to 5% | 10 to 20% | C (C = 2 to <5 fold increase) | C (C = 2 to <5 fold increase)
12 | COC(=O)Nc1c(N)nc(-c2nc(-c3nccs3)n(Cc3ccccc3F)n2)nc1N [Compound I-60, methyl 4,6-diamino-2-(1-(2-fluorobenzyl)-5-(thiazol-2-yl)-1H-1,2,4-triazol-3-yl)pyrimidin-5-ylcarbamate] | 10 to 20% | 20 to 40% | D (D = 5 to <10 fold increase) | B (B = 1 to <2 fold increase)
13 | Fc1ccccc1Cn1nc(-c2cocn2)nc1-c1nccs1 [Compound I-62] | 10 to 20% | 5 to 10% | C (C = 2 to <5 fold increase) | A (A = no increase to <1 fold increase)
